Test results from PMC6437697 (Journal of Medicinal Chemistry, 2019).

What was measured:
Assay in all cases: KINOMEscan
Type in all cases: binding
Details in all cases: read-out: % control activity remaining
ERK8 = molecular target: T1, ERK8 (Homo sapiens, UniProt Q8TD08)
T1 construct: purchased Eurofins DiscoverX KINOMEscan
T1 sequence (Q8TD08 1-544): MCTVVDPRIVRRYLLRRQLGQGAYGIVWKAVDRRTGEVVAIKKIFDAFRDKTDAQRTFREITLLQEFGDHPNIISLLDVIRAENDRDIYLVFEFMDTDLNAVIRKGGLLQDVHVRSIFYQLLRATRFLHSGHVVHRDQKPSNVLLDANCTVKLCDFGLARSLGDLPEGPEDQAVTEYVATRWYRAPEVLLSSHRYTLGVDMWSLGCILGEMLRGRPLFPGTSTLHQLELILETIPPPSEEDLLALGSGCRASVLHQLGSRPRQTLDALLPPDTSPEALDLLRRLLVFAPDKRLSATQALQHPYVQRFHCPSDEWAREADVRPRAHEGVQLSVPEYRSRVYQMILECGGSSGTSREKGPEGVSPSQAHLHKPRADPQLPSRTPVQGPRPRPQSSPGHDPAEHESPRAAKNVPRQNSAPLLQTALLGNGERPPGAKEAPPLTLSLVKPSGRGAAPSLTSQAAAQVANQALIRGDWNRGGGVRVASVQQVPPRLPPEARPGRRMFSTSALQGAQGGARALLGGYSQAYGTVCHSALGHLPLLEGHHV

HCK = molecular target: T2, HCK (Homo sapiens, UniProt P08631)
T2 construct: purchased Eurofins DiscoverX KINOMEscan

MAP4K5 = molecular target: T3, MAP4K5 (Homo sapiens, UniProt Q9Y4K4)
T3 construct: purchased Eurofins DiscoverX KINOMEscan

FLT3(N841I) = molecular target: T4, FLT3(N841I) (Homo sapiens, UniProt P36888, N841I)
T4 construct: purchased Eurofins DiscoverX KINOMEscan
T4 sequence (P36888 27-993 N841I): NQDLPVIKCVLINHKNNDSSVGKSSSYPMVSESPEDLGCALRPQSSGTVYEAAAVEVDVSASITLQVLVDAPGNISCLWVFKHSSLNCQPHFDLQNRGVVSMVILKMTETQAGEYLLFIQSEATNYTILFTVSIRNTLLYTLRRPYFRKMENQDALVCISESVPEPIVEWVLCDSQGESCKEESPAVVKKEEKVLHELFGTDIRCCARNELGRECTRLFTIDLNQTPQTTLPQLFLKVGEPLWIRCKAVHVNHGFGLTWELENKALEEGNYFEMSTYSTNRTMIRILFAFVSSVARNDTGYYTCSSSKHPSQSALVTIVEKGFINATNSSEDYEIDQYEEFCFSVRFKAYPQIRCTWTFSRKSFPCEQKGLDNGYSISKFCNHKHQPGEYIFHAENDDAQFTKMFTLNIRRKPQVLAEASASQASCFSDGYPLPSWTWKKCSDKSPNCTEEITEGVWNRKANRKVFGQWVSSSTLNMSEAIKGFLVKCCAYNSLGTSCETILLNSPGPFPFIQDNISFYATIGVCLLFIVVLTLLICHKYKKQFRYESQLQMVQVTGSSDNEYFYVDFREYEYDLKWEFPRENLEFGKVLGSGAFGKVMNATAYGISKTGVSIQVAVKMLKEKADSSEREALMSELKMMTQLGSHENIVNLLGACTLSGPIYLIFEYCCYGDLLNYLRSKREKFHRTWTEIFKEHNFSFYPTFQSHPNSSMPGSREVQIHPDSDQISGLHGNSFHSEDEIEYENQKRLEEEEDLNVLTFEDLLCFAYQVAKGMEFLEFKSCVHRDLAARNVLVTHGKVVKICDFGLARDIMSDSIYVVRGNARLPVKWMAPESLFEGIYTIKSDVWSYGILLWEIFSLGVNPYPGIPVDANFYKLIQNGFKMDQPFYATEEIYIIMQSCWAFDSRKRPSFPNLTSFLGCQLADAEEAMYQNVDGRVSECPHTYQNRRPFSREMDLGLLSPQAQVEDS

PRKCD = molecular target: T5, PRKCD (Homo sapiens, UniProt Q05655)
T5 construct: purchased Eurofins DiscoverX KINOMEscan

BMX = molecular target: T6, BMX (Homo sapiens, UniProt P51813)
T6 construct: purchased Eurofins DiscoverX KINOMEscan
T6 sequence (P51813 1-675): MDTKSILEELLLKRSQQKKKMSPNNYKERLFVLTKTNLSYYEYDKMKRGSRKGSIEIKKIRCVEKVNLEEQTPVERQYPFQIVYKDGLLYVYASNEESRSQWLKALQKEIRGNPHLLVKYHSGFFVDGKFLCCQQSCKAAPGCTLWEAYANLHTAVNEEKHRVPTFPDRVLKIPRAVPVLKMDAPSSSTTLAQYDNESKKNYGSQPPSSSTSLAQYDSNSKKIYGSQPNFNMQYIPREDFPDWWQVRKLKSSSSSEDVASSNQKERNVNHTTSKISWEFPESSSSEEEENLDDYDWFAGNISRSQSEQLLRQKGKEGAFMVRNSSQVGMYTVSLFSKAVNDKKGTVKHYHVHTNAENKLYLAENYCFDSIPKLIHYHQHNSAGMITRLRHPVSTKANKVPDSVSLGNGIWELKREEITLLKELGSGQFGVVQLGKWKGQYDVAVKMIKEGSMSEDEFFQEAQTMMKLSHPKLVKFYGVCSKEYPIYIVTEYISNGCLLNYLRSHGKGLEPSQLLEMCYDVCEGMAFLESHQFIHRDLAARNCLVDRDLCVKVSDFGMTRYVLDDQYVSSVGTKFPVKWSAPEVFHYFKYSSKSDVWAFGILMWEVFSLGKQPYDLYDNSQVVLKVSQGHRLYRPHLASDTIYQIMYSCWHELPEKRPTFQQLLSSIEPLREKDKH

ERK5 = molecular target: T7, ERK5 (Homo sapiens, UniProt Q13164)
T7 construct: purchased Eurofins DiscoverX KINOMEscan

[1] = molecular target: T8, RPS6KA5(Kin.Dom.2-C-terminal) (Homo sapiens, UniProt O75582)
T8 construct: RPS6KA5(Kin.Dom.2-C-terminal); purchased Eurofins DiscoverX KINOMEscan

PAK2 = molecular target: T9, PAK2 (Homo sapiens, UniProt Q13177)
T9 construct: purchased Eurofins DiscoverX KINOMEscan

CSNK1G3 = molecular target: T10, CSNK1G3 (Homo sapiens, UniProt Q9Y6M4)
T10 construct: purchased Eurofins DiscoverX KINOMEscan

CAMK4 = molecular target: T11, CAMK4 (Homo sapiens, UniProt Q16566)
T11 construct: purchased Eurofins DiscoverX KINOMEscan
T11 sequence (Q16566 whole entry, looked up): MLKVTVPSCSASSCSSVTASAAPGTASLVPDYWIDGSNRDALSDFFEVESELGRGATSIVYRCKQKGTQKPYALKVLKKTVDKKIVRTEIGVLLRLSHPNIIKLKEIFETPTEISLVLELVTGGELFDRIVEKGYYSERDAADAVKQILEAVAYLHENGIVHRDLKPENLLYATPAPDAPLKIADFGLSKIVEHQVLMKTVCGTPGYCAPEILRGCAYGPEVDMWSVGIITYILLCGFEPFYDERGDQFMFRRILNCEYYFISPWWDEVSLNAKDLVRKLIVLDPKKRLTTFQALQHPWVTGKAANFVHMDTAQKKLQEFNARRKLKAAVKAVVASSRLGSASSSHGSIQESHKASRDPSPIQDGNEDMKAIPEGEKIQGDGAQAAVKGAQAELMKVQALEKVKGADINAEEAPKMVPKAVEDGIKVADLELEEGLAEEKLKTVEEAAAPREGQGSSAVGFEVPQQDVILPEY

T7 sequence (Q13164 whole entry): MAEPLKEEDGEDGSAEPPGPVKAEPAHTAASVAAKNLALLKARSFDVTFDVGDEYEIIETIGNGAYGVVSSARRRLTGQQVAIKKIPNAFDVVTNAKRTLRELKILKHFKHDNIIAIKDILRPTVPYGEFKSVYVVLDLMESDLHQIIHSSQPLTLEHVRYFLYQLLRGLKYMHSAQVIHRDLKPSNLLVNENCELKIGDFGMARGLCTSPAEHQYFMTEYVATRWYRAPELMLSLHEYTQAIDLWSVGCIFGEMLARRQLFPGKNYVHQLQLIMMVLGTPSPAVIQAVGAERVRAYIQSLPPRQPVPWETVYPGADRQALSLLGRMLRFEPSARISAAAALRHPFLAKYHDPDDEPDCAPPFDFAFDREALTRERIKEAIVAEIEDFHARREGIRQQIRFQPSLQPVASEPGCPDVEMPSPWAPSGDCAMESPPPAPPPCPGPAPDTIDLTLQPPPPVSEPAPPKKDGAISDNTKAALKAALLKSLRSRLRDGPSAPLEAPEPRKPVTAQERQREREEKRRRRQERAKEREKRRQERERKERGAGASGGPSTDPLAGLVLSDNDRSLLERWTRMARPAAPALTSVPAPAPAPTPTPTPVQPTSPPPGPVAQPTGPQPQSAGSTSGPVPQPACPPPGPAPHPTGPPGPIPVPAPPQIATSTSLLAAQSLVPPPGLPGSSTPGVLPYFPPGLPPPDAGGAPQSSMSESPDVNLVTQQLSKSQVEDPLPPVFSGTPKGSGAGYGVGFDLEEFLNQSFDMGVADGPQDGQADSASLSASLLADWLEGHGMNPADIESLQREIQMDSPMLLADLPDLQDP
T3 sequence (Q9Y4K4 whole entry): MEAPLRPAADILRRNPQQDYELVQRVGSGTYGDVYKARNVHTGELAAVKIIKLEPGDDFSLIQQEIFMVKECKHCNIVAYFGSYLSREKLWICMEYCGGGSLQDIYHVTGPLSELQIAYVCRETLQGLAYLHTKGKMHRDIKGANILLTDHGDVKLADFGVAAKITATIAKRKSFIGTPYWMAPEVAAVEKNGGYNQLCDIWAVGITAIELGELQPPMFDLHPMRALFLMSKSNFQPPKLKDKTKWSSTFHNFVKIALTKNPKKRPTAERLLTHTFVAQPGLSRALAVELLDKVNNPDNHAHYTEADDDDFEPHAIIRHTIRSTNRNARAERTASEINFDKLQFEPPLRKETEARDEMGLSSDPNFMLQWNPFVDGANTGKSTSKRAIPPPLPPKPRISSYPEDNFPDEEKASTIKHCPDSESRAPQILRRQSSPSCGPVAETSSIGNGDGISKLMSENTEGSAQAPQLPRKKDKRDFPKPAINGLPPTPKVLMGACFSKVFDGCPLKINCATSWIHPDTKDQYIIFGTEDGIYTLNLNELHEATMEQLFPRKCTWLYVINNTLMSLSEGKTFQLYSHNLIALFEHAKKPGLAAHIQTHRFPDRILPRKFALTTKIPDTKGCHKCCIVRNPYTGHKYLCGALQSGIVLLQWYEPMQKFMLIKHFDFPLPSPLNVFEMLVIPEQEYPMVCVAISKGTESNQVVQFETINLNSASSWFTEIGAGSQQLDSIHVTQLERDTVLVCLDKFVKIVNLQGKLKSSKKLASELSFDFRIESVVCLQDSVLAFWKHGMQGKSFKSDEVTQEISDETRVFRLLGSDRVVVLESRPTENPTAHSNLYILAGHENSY
T8 sequence (O75582 426-687 limits assumed): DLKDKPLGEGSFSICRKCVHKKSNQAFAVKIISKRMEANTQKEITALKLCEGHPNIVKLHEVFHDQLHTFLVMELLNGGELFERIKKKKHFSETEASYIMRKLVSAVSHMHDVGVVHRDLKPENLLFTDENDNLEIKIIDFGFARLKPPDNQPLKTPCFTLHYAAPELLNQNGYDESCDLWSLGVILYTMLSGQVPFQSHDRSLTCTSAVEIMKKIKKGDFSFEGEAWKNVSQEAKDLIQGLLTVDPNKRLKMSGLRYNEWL
T10 sequence (Q9Y6M4 whole entry): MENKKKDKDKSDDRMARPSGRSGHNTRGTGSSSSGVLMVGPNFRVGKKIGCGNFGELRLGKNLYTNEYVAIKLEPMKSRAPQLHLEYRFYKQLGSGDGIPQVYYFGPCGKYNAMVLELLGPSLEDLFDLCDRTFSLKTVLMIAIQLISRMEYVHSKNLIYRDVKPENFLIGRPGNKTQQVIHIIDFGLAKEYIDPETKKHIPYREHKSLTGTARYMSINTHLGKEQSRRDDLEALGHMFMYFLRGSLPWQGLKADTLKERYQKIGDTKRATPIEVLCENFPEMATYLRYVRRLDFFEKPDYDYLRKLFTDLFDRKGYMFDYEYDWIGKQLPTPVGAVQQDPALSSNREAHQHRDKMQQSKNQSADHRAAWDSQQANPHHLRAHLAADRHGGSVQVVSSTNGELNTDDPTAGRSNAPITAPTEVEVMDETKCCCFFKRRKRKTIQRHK
T5 sequence (Q05655 whole entry): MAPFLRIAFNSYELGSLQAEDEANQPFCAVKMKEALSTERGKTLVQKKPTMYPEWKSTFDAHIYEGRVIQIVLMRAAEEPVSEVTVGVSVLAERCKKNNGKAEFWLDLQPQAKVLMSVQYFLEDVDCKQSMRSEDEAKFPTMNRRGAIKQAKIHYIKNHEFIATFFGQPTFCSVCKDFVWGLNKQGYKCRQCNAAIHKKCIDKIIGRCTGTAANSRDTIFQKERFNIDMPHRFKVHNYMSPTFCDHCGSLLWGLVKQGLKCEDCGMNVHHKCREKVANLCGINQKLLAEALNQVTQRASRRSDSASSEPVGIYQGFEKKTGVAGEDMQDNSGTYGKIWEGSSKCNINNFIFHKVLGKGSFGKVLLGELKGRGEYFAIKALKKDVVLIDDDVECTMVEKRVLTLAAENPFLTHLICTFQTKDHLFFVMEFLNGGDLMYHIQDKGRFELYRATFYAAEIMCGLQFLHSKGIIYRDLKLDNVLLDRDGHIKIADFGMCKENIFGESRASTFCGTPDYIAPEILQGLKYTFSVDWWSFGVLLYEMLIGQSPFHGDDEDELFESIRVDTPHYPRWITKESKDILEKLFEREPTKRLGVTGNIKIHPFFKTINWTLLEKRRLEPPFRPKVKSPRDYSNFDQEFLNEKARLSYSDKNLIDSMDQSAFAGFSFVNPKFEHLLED
T2 sequence (P08631 whole entry): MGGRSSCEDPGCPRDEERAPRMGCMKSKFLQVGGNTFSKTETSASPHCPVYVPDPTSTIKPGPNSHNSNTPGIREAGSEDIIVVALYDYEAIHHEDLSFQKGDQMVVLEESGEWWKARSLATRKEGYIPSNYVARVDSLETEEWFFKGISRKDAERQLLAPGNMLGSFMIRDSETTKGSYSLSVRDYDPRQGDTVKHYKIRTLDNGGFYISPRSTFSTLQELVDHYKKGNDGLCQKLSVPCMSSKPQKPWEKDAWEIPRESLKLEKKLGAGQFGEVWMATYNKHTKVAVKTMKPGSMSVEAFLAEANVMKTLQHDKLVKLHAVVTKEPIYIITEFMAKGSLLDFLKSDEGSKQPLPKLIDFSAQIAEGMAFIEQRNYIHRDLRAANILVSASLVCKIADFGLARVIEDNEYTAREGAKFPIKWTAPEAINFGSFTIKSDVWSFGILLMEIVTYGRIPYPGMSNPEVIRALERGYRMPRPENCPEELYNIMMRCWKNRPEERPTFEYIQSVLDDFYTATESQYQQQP
T9 sequence (Q13177 whole entry): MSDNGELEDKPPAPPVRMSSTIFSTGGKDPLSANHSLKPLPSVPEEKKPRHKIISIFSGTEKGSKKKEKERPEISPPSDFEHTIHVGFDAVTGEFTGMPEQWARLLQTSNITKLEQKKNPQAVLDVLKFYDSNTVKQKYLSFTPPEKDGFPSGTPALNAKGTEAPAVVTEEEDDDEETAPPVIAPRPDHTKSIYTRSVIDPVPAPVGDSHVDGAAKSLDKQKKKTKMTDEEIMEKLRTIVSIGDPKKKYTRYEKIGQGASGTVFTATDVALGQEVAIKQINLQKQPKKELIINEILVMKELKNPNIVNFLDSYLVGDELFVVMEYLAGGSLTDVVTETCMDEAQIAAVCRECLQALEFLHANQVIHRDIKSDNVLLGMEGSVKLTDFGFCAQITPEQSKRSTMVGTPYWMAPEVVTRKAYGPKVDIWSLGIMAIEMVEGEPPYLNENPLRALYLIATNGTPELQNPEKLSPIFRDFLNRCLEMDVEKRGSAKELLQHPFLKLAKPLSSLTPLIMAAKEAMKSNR

Structure (SMILES)	remaining binding at 1 µM (ERK8)	remaining binding at 1 µM (HCK)	remaining binding at 1 µM (MAP4K5)	remaining binding at 1 µM (FLT3(N841I))	remaining binding at 1 µM (PRKCD)	remaining binding at 1 µM (BMX)	remaining binding at 1 µM (ERK5)	remaining binding at 1 µM [1]	remaining binding at 1 µM (PAK2)	remaining binding at 1 µM (CSNK1G3)	remaining binding at 1 µM (CAMK4)
Clc1cc(NCC2CC2)c2ncc(-c3ccc4[nH]ncc4c3)n2n1 [compound 2, 6-Chloro-N-(cyclopropylmethyl)-3-(1H-indazol-5-yl)imidazo[1,2-b]pyridazin-8-amine]	87%	80%	98%	7.5%	93%	96%	100%	93%	71%	100%	100%
O=C(CN1CCOCC1)N[C@H]1CC[C@H](Nc2cc(Cl)nn3c(-c4ccc5[nH]ncc5c4)cnc23)CC1 [compound 26]	81%	93%	87%	0%	90%	92%	98%	80%	76%	100%	100%
CN1CCC(CNc2cc(Cl)nn3c(-c4cc5nc(Nc6ccccc6)[nH]c5cc4F)cnc23)CC1 [compound 31, 6-Chloro-3-(6-fluoro-2-(phenylamino)-1H-benzo[d]imidazol-5-yl)-N-((1-methylpiperidin-4-yl)methyl)imidazo[1,2-b]pyridazin-8-amine]	100%	87%	100%	96%	62%	100%	87%	99%	91%	100%	100%
